The text below walks through data of patent US11541029B2, “High penetration compositions and their applications” (Techfields Pharma Co., Ltd., priority 2008, dated 2023).

Data set [1] can be described thus: Amount of salicylic acid in rat plasma and brain, 0.3 mmol/kg. The text has this: 20 male rats were divided into 4 groups (n=5). 0.3 mmol/kg of diethylaminoethyl acetylsalicylate.HCl salt was administrated into rats intramuscularly (20% in 70% ethanol) or transdermally (10% in 70% ethanol, on the shaved back of rat, 10 cm^2) and 0.3 mmol/kg of aspirin was administrated into rats intramuscularly (20% in 70% ethanol) or transdermally (10% in 70% ethanol, on the shaved back of rat, 10 cm^2). […] The plasma or brain tissue (the whole brain was washed with pH 7.4 buffer for 3 times) was homogenized immediately in 3-5 ml of methanol, using a tissue tearor at 30,000 rpm (about 2 min.).

The nature of data set [2]: Amount of salicylic acid in rat cerebrospinal fluid (CSF), 0.3 mmol/kg. It counts as in vivo, rats. How it is done: 27 male rats were divided into 4 groups […]. […] Amounts of salicylic acid in rat CSF were determined.
The test system of data set [3] is SLAC:NOD-IDDM, type 1 diabetes. The data set can be described thus: Anti-diabetes (type I) activity of HPCs of NSAIAs. In kind it is in vivo, mice. In a few lines:
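Prodrugs given transdermally to the shaved back (about 1.5 cm^2) twice daily at 8 am and 5 pm for 7 weeks, dosed as equal to 20 mg/kg of NSAIA. Non-fasting blood glucose was measured every 3 days at 4:30 pm from week 4 to week 7.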

Data set [4] concerns fungal diseases and insects of grape vine. The data set can be described thus: Antiviral, anti-fungus, anti-insect activity in red grape vine. It counts as in vivo. From the text: 2 Acres of grape vine was divided into 4 groups (½ acre each). All field operations concerning land preparation and the uses of fertilizers were same for all groups. Group A was control group treated with no chemicals. Group B was normal fungicides and insecticides-treated group. Group C was N,N-diethylaminoethyl acetylsalicylate treated group. Group D was N,N-diethylaminoethyl acetylsalicylate and N,N-diethylaminoethyl jasmonate.citric acid treated group. In group A, black rot, downy mildew, powdery mildew, anthracnose, Phomopsis Blight, and other fungal diseases were found and Grape Berry Moth, Grape Root Borer, Rose Chafer, Japanese beetle, grape tomato gall, and other diseases and insects were found. Yield nothing of good (edible) grapes. In group B, 200 g of Ferbam 76% WP in 100 kg of water was applied to the group B grape vines in November 15; 160 g of sulfur 95% WP and 600 g of hydrated lime in 100 kg of water was applied to the group B grape vines in December 15; 200 g of Daconil 2787 in 100 kg of water was applied to the group B grape vines in March 10; 250 g of Captan 50% WP and 200 g of dimethomorph 50% WP in 100 kg of water was applied to the group B grape vines in March 20; 30 g of (4″R)-4″-deoxy-4″-(methylamino)avermectin B1 benzoate [proclaim ? (banleptm)] […]

Regarding `CCN(CC)CCOC(=O)c1ccccc1OC(C)=O.Cl` [P-1, diethylaminoethyl acetylsalicylate.HCl salt], the “salicylic acid in Plasma (1 hr)” value in data set [1] (intramuscularly) came to 378 ± 34 nmol/mL; in data set [1] (transdermally), 158 ± 21 nmol/mL. Further, the “salicylic acid in Plasma (8 hr)” value is 123 ± 25 nmol/mL in data set [1] (intramuscularly) and 103 ± 28 nmol/mL in data set [1] (transdermally). Moreover, the “salicylic acid in Plasma (18 hr)” value in data set [1] (intramuscularly) worked out at 0.9 ± 0.2 nmol/mL; in data set [1] (transdermally), 1.1 ± 0.2 nmol/mL. The “salicylic acid in CSF” value in data set [2] (intramuscularly, 1 hour) is given as 36.4 ± 4.3 nmol/g; in data set [2] (intramuscularly, 8 hours) it was 28.2 ± 6.5 nmol/g; in data set [2] (intramuscularly, 18 hours) it was 15.1 ± 4.7 nmol/g; in data set [2] (transdermally, 1 hour) it was 38 ± 17 nmol/g; in data set [2] (transdermally, 8 hours), 28.4 ± 7.5 nmol/g; in data set [2] (transdermally, 18 hours), 22.3 ± 5.4 nmol/g. The “blood glucose, Baseline” value in data set [3] (equal to 20 mg/kg of NSAIAs transdermally twice per day for 7 weeks) is given as 18.1 ± 4.5 mmol/L. For the same compound, in data set [3] (fourth week to seventh week, no fasting, equal to 20 mg/kg of NSAIAs transdermally twice per day), the “blood glucose, Average” value came to 7.5 ± 1.8 mmol/L. In addition, the “Yield of good (edible) grapes” value in data set [4] (1/2 acre per group, Malathion co-applied in group C) came out at 6300 kg. In addition, in data set [4] (groups C and D), the harvest dates earlier is listed as 10 days.
